# Measured values published in patent US8796247B2, “Indole derivative, and pharmacologically acceptable salt thereof” (Kissei Pharmaceutical Co., Ltd., priority 2011, dated 2014).
# pIC50: −log10 of the molar value.
# Legend:
# rat EP1 receptor = target: T1, rat EP1 receptor (Rattus norvegicus, UniProt P70597); assay: Test for confirmation of EP1 receptor antagonism: inhibition of prostaglandin E2-induced increase in intracellular calcium concentration in rat EP1 receptor-expressing COS-1 cells; assay type: cell-based; conditions: prostaglandin E2 10 nM, intracellular calcium fluorescence signal
# T1 construct: expressed in transfected cells; host or cells: COS-1 cells, transient transfection with Lipofectamine 2000
# T1 sequence (P70597 1-405): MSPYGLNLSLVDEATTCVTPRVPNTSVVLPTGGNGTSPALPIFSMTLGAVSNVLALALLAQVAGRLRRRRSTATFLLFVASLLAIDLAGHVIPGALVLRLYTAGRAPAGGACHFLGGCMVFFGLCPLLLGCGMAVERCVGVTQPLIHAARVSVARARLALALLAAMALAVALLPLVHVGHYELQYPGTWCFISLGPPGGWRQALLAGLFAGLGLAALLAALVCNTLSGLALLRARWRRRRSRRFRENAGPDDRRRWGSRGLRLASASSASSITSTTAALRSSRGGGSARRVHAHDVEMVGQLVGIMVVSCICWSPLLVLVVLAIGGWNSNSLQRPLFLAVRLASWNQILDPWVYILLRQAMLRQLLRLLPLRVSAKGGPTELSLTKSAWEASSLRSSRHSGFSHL
# Protocol: Test for Confirmation of EP1 Receptor Antagonism
# (1) Preparation of Rat EP1 Expression Vector
# Using Rat Kidney BD Marathon-Ready cDNA (Nippon Becton Dickinson Company, Ltd.) as a template, and using a forward primer shown in (SEQ ID NO:1) and a reverse primer shown in (SEQ ID NO:2), a first run of PCR was carried out using KOD-Plus-Ver 2.0 (Toyobo Co., Ltd.). Further, using this amplification product as a template, and using a forward primer shown in (SEQ ID NO:3) and a reverse primer shown in (SEQ ID NO:4), a second run of PCR was carried out in the same manner. The amplification product obtained by the second run of PCR was incorporated into a vector (pcDNA3.1 D/V5-His-TOPO (registered trademark), Invitrogen Japan K. K.). By a conventional method, the vector containing this amplification product was introduced into E. coli (One Shot TOP10 Competent Cells, Invitrogen Corporation) and transformed. This transformed E. coli was cultured in an LB agar medium for one day. After the culture, colonies were selected and cultured in an LB liquid medium containing 50 μg/mL of ampicillin. After the culture, the vector was purified using a QIAprep Spin Miniprep Kit (Qiagen K. K.). The base sequence of the insertion site of this vector (SEQ ID NO:5) was compared with the rat EP1 base sequence (Ptger1) registered as Accession No. NM_013100 in a publicly-known database (NCBI), and as a result, the base sequences completely matched except for a single base. Further, the amino acid sequence translated by the base sequence completely matched the amino acid sequence of the rat EP1 receptor registered as an NCBI Accession No. NP_037232. Therefore, it was confirmed that the cloned gene sequence was a base sequence of the rat EP1 receptor and the obtained amino acid sequence was that of the rat EP1 receptor. The pcDNA3.1 D/V5-His-TOPO (registered trademark) into which the nucleic acid shown in (SEQ ID NO:5) had been inserted was taken as a rat EP1-expressing vector.
# (2) Preparation of Rat EP1 Receptor-Expressing Cells
# COS-1 cells (Dainippon Sumitomo Pharma Co., Ltd.) were cultured until they reached confluence in an incubator at 37° C. under a 5% CO2 gas condition, using a D-MEM liquid medium (high glucose and L-glutamine contained, Invitrogen Corporation) to which a penicillin-streptomycin solution (Invitrogen Corporation, final concentration: 100 U/mL as benzylpenicillin; 100 μg/mL as streptomycin) as an antibiotic, MEM nonessential amino acids (Invitrogen Corporation, final concentration: 0.1 mM), and fetal calf serum (Sanko Junyaku Co., Ltd., final concentration: 10%) were added.
# (2-2) COS-1 Cell Subculture
# The cells that had reached confluence were stripped with 0.05% trypsin/0.53 mM EDTA•4Na (Invitrogen Japan K. K.) and resuspended in the liquid medium. The resuspended cells were diluted and cultured in the liquid medium at a spread ratio from 1:4 to 1:8.
# (2-3) Preparation of Cells for Introduction of Rat EP1-Expressing Vector
# The cells that had reached confluence were stripped with 0.05% trypsin/0.53 mM EDTA•4Na, and resuspended in a D-MEM liquid medium (high glucose and L-glutamine contained, Invitrogen Corporation) to which MEM nonessential amino acids (final concentration: 0.1 mM) and fetal calf serum (final concentration: 10%) were added. In each well of a Poly D-lysine-coated 96-well microplate (BD BioCoat (registered trademark), Nippon Becton Dickinson Company, Ltd.), this resuspended cell suspension culture was prepared to be 5×10^4 cells/well in 100 μL of the liquid medium, and 100 μL of the cell suspension was dispensed and seeded in each well. After seeding, the cells were cultured in an incubator at 37° C. under a 5% CO2 gas condition. Once the cells for introduction of a rat EP1-expressing vector were adhered (about 2 hours after seeding), introduction of the rat EP1-expressing vector was carried out in the following order.
# (2-4) Introduction of Rat EP1-Expressing Vector […]
# Female SD rats = assay: Inhibitory effect of compound on sulprostone-induced bladder contraction; assay type: in vivo, rat; conditions: urethane-anesthetized female SD rats, sulprostone 0.3 mg/kg s.c., test agent 1.0 mg/kg intravenously; for Bladder Contraction Inhibition Rate (%) 15 minutes: 15 minutes after administration; for Bladder Contraction Inhibition Rate (%) 60 minutes: 60 minutes after administration
# From the text: Inhibitory Effect of Compound on Sulprostone-Induced Bladder Contraction
# Female SD rats were used. Under urethane anesthesia (1.25 g/kg, administered subcutaneously), a tracheal cannula (Size 8, HIBIKI) and a femoral vein cannula for administration (23G needle-equipped PESO) were inserted thereinto. The bladder cannula (PE50) was inserted from the bladder apex. The bladder cannula was connected to a three-way stopcock, and then one port was connected to a pressure transducer and the other port was connected to a syringe filled with saline. Saline was injected into the bladder at an injection rate of 3.6 mL/hour and the bladder contraction pressure was recorded at the time of injection with a recorder (RECTI-HORITZ-8K, NEC Corporation). After 10 minutes from stabilization of the bladder contraction pressure during urination, sulprostone was administered subcutaneously (0.3 mg/kg). Subsequently, once the bladder contraction pressure became constant, a test agent was administered intravenously (1.0 mg/kg). An average bladder contraction pressure during the 10 minute period before administration of sulprostone was used as a baseline (0%). Further, an average bladder contraction pressure during the 10 minute period directly before administration of the test agent was used as a maximum bladder contraction pressure (100%). The average bladder contraction pressures were measured for a 5 minute period before and after 15 minutes and 60 minutes from administration of the test agent. The ratio of this measured value to the maximum bladder contraction pressure was calculated by the following equation and regarded as an average bladder contraction rate after administration of the test agent: (Average Bladder Contraction Rate after Administration of Test Agent (%))=[(Average Bladder Contraction Pressure after Administration of Test Agent)/(Maximum Bladder Contraction Pressure)]×100 EQUATION 1
# In addition, the difference between the maximum bladder contraction rate (100%) and the average bladder contraction rate (%) after administration of the test agent was calculated by the following equation and regarded as a bladder contraction inhibition rate of the test agent: (Bladder Contraction Inhibition Rate)=100%−(Average Bladder Contraction Rate after Administration of Test Agent (%)) EQUATION 2
pIC50 (rat EP1 receptor),Compound,Bladder Contraction Inhibition Rate (%) 15 minutes (Female SD rats) [%],Bladder Contraction Inhibition Rate (%) 60 minutes (Female SD rats) [%]
7.33,"COc1ccc2c(c1)cc(-c1ccccc1)n2Cc1cccc(C(=O)NS(C)(=O)=O)n1 [Example 1-1, N-(Methanesulfonyl)-6-(5-methoxy-2-phenylindol-1-ylmethyl)pyridine-2-carboxamide]",67.3,75.5
7.72,"CCS(=O)(=O)NC(=O)c1cccc(Cn2c(-c3ccccc3)cc3cc(OC)c(Cl)cc32)n1 [Example 1-6, 6-(6-chloro-5-methoxy-2-phenylindol-1-ylmethyl)-N-(ethanesulfonyl)pyridine-2-carboxamide]",70.0,35.8
7.47,"COc1ccc2c(c1)cc(-c1ccccc1)n2Cc1cccc(-c2nnn[nH]2)n1 [Example 2-1, 5-Methoxy-2-phenyl-1-[6-(1H-1,2,3,4-tetrazol-5-yl)pyridin-2-ylmethyl]-1H-indole]",73.2,78.1
7.62,"COc1ccc2c(c1)cc(C1(C)CC1)n2Cc1cccc(-c2nnn[nH]2)n1 [Example 5-5, 5-methoxy-2-(1-methylcyclopropyl)-1-[6-(1H-1,2,3,4-tetrazol-5-yl)pyridin-2-ylmethyl]-1H-indole]",85.3,55.2
